Source: patent US6664406B1, “Nervonic acid derivatives, their preparation and use” (Croda International PLC, priority 1999, dated 2003)
Like-named read-outs stand apart in the source and are kept apart here. Marks after values point to notes of the source that are not given here.

How the values were obtained:
[1] = system: acute EAE in the Lewis rat; assay: Prophylactic effect of glyceryl trinervonate on acute EAE (Comparative Example); format: in vivo
Description: Prophylactic effects of glyceryl trinervonate (GTN, Description 4) were assessed on acute EAE in the Lewis rat. Induction and Assessment of EAE was as for Example 4. Dosing regime involved oral administration in Miglyol 810 five days prior to inoculation and for 20 days post-inoculation. (Refer to Example 8 regarding insignificance of use of PBS or Miglyol vehicles).

[2] = system: chronic EAE in the Biozzi mouse model; assay: NA:NA and NA:GLA in ethyl oleate in chronic relapsing EAE (Example 7); format: in vivo; settings: for AG: Percentage of mice in the group / CFT: Percentage of mice in the group / CHLP: Percentage of mice in the group / HLH: Percentage of mice in the group / PFT: Percentage of mice in the group / PHLP: Percentage of mice in the group: ethyl oleate vehicle
Description: (§1) Male Biozzi mice weighing 30-35 g were injected in each flank with 0.15 mL of an emulsion containing lyophilised mouse spinal cord, phosphate buffered saline and incomplete Freund's adjuvant supplemented with Mycobacterium butyricum and Mycobacterium tuberculosis H37Ra.
(§2) 1: Partial Flaccid Tail (PFT), 2: Complete Flaccid Tail (CFT), 3: Impaired Righting Reflex (IRR), 4: Ataxic Gait (AG), 5: Hind Limb Hypotonia (HLH), 6: Partial Hind Limb Paralysis (PHLP), 7: Complete Hind Limb Paralysis (CHLP), 8: Moribund (M), 9: Dead (D).

[3] = Nervonic acid composition of total polar lipid from rat brain (Example 9); format: in vivo; settings: after Example 6 treatments; NA:GLA at both low and high doses
Description: (§3) Upon termination of certain biological evaluations, rat or mice brains were extracted and the fatty acid composition of total polar lipids from rat/mouse brain was determined.
(§4) Biological material was sent for analysis to Dr J. Hendersen at the University of Stirling, Institute of Aquaculture, Scotland. Analyses were carried out on two batches of experiments (detailed respectively in Example 6 and Example 7).

[4] = system: neurological EAE in the Lewis rat
Description: Male Lewis rats, weighing 230-280 g on the day of inoculation, were injected in each rear footpad with 0.1 ml of an emulsion containing equal parts of guinea pig spinal cord; phosphate buffered saline (PBS) and incomplete Freund's adjuvant supplemented with 10 mg/ml Mycobacterium tuberculosis H37Ra.
(§5) Animals were weighed daily and assessed for neurological disease from day 7 post-inoculation (PI). Rats displaying symptoms of EAE were scored as follows: 1: flaccid tail (FT), 2: hind limb hypotonia (HLH), 3: partial hind limb paralysis (PHLP), 4: complete hind limb paralysis (CHLP), 5: moribund or dead.
NA:GLA (neat oil) was orally administered 5 days prior to inoculation and continued for 25 days PI, at a dose of 750 mg/kg body weight/day and 1000 mg/kg body weight/day. NA:DHA (neat oil) was given by an identical dosing regime at a dose of 500 mg/kg body weight/day. Control-sensitised animals received PBS vehicle or were undosed. Undosed, vehicle and low dose NA:GLA treatments contained 7 animals. Four rats received high dose NA:GLA and 3 rats were dosed with NA:DHA.

[5] = system: CREAE in the Biozzi mouse model; assay: NA:NA and NA:GLA in Miglyol 810 in CREAE (Example 8); format: in vivo
Description: as §1, §2
Therefore, Miglyol appeared well-suited for use as a vehicle in subsequent studies to determine the efficacy of compounds in CREAE. Therefore, using Miglyol 810 as the new vehicle, prophylactic effects of NA:NA and NA:GLA were re-assessed on CREAE in the Biozzi mouse model (90% dilution, 1000 mg/kg/day, up to 43 days PI).

[6] = Nervonic acid composition of total polar lipid from mouse brain (Example 9); format: in vivo; settings: CREAE-inoculated mice
Description: as §3, §4

[7] = Miscibility / physical state of oral compositions in vehicle; format: physicochemical; settings: room temperature (about 20° C.); dilution in vehicle
Source text: Formulations of the present invention suitable for oral administration may be in the form of discrete units such as capsules, cachets, tablets or lozenges, each containing a predetermined amount of the active ingredient; in the form of a powder or granules; in the form of a solution or a suspension in an aqueous liquid or non-aqueous liquid; or in the form of an oil-in-water emulsion or a water-in-oil emulsion. The active ingredient may also be in the form of a bolus, electuary or paste. For such formulations, a range of dilutions of the active ingredient in the vehicle is suitable, such as from 1% to 99%, preferably 5% to 50% and more preferably 10% to 25% dilution. Depending upon the level of dilution, the formulation will be either a liquid at room temperature (in the region of about 20° C.) or a low-melting solid.

[8] = system: neurological EAE in the Lewis rat; assay: NA:NA (ethyl oleate formulation) in acute EAE (Example 5)
Description: Male Lewis rats, weighing 240-360 g on the day of inoculation, were injected in each rear footpad with 0.1 ml of an emulsion containing equal parts of guinea pig spinal cord, phosphate buffered saline (PBS) and incomplete Freund's adjuvant supplemented with 10 mg/ml Mycobacterium tuberculosis H37Ra.
as §5
Control-sensitised animals received ethyl oleate vehicle or were undosed, and each treatment contained 10 animals.
Students t-test was used to assess significant differences in neurological scores and the Fishers exact probability test for the presence or absence of symptoms.

[9] = Biozzi mouse, 10% w/w in ethyl oleate, 1000 mg/kg body weight/day
[10] = acute phase, Biozzi mouse, 10% w/w in ethyl oleate, 1000 mg/kg body weight/day
[11] = relapse phase, Biozzi mouse, 10% w/w in ethyl oleate, 1000 mg/kg body weight/day
[12] = acute phase, Miglyol 810 vehicle, 1000 mg/kg/day
[13] = acute phase, Miglyol 810 vehicle, n=12, NA:GLA n=11
[14] = relapse phase, Miglyol 810 vehicle, 1000 mg/kg/day
[15] = relapse phase, Miglyol 810 vehicle, NA:GLA n=9, NA:NA n=11
[16] = 10% w/w in ethyl oleate, 1000 mg/kg body weight/day
[17] = 10% w/w in ethyl oleate, oral 1000 mg/kg body weight/day, n=10

CCCCCCCC/C=C/CCCCCCCCCCCCCC(=O)OCC(COC(=O)CCCCCCCCCCCCC/C=C/CCCCCCCC)OC(=O)CCCCCCCCCCCCC/C=C/CCCCCCCC [GTN, Glyceryl Trinervonate]
onset and loss of symptoms together with duration of the disease ([1]; compared to vehicle or undosed groups): not significantly different from vehicle or undosed groups | adverse effect (body weight gain until day 10) ([1]; dietary administered): did not induce any major adverse effect | effect on parameters associated with neurological deficits in EAE-diseased rats ([1]; oral in Miglyol 810): did not significantly affect any parameter | No. of diseased rats ([1]; oral in Miglyol 810, 5 days prior to inoculation and 20 days PI, n=10): 10/10 | CFT: Percentage of rats in the group ([1]; oral in Miglyol 810, n=10): 100% | CHLP: Percentage of rats in the group ([1]; oral in Miglyol 810, n=10): 40% | HLH: Percentage of rats in the group ([1]; oral in Miglyol 810, n=10): 90% | MD: Percentage of rats in the group ([1]; oral in Miglyol 810, n=10): 0% | Mean day of symptom loss ([1]; oral in Miglyol 810, n=10): 17.0 ± 1.2 days | Mean day of symptom onset ([1]; oral in Miglyol 810, n=10): 11.2 ± 1.2 days | Mean duration of symptoms ([1]; oral in Miglyol 810, n=10): 5.8 ± 1.1 days | Number of dead ([1]; oral in Miglyol 810, n=10): 0/10 | PFT: Percentage of rats in the group ([1]; oral in Miglyol 810, n=10): 100% | PHLP: Percentage of rats in the group ([1]; oral in Miglyol 810, n=10): 70%

CCCCCCCC/C=C\CCCCCCCC(=O)OCC [ethyl oleate]
effect of the vehicle on incidence and severity of chronic relapsing EAE ([2]; Biozzi mouse, ethyl oleate vehicle alone, compared to undosed): significantly reduced the incidence and severity of the acute and relapsing phases

CCC=CCC=CCC=CCC=CCC=CC/C=C\CCC(=O)OCCCOC(=O)CCCCCCCCCCCCC/C=C\CCCCCCCC [NA:DHA, 1-(z-15-tetracosenoyloxy)-3-(z-4,7,10,13,16,19-docosahexaenoyloxy)propane]
NA levels in rat brain lipids compared to normal, undosed and vehicle treated animals [3]: did not enhance the NA levels | CHLP: Number of animals showing symptoms/total ([4]; 500 mg/kg/day): 3/3 | FT: Number of animals showing symptoms/total ([4]; 500 mg/kg/day): 3/3 | HLH: Number of animals showing symptoms/total ([4]; 500 mg/kg/day): 3/3 | PHLP: Number of animals showing symptoms/total ([4]; 500 mg/kg/day): 3/3 | daily score ([4]; 500 mg/kg/day): enhanced compared to levels noted for control and NA:GLA-treated animals | development of CHLP ([4]; 500 mg/kg/day): 11.3±1.3 | effect on neurological symptoms ([4]; 500 mg/kg/day): intensified neurological symptoms | Mean day of final symptom loss (±SD) ([4]; neat oil oral 500 mg/kg/day): 19.3 ± 1.2 days | Mean day of symptom onset (±SD) ([4]; neat oil oral 500 mg/kg/day): 10.3 ± 0.6 days | Number of dead/total ([4]; neat oil oral 500 mg/kg/day): 0/3 | Number diseased/total ([4]; neat oil oral 500 mg/kg/day, 5 days prior to inoculation and 25 days PI): 3/3

CCCCCCCC/C=C\CCCCCCCCCCCCCC(=O)OCCCOC(=O)CCCCCCCCCCCCC/C=C\CCCCCCCC [NA:NA, 1,3-di-(z-15-tetracosenoyloxy)propane]
Acute and relapse symptoms (mean neurological scores) [2, 9]: completely abolished | onset of relapse [2, 9]: delayed, but not significantly | Mean day of symptom loss [2, 10]: 24.7 ± 3.2 days | Mean day of symptom onset [2, 10]: 22.3 ± 3.8 days | Mean duration of symptoms [2, 10]: 2.3 ± 1.2 days | Number of dead mice [2, 10]: 0/10 | No. of diseased mice ([2]; acute phase, Biozzi mouse, […], oral 1000 mg/kg body weight/day, 5 days prior to inoculation and 43 days PI, n=10): 3/10 | AG: Percentage of mice in the group ([2]; acute phase, n=10): 20% | CFT: Percentage of mice in the group ([2]; acute phase, n=10): 0% | CHLP: Percentage of mice in the group ([2]; acute phase, n=10): 0% | HLH: Percentage of mice in the group ([2]; acute phase, n=10): 10% | PFT: Percentage of mice in the group ([2]; acute phase, n=10): 10% | PHLP: Percentage of mice in the group ([2]; acute phase, n=10): 0% | Mean day of symptom onset [2, 11]: 43.3 ± 1.2 days | No. of diseased mice [2, 11]: 3/10 | Number of dead mice [2, 11]: 1/10 | AG: Percentage of mice in the group ([2]; relapse phase, n=10): 30% | CFT: Percentage of mice in the group ([2]; relapse phase, n=10): 0% | CHLP: Percentage of mice in the group ([2]; relapse phase, n=10): 0% | HLH: Percentage of mice in the group ([2]; relapse phase, n=10): 30% | PFT: Percentage of mice in the group ([2]; relapse phase, n=10): 20% | PHLP: Percentage of mice in the group ([2]; relapse phase, n=10): 0% | effect on the neurological course of CREAE ([5]; Biozzi mouse, Miglyol 810 vehicle, 1000 mg/kg/day): did not seem significantly to alter the course of CREAE | No. of diseased mice ([5]; acute phase, Biozzi mouse, Miglyol 810 vehicle (90% dilution), 1000 mg/kg/day, up to 43 days PI): 12/12 | Mean day of symptom loss [5, 12]: 26.3 ± 1.0 days | Mean day of symptom onset [5, 12]: 17.1 ± 1.9 days | Mean duration of symptoms [5, 12]: 9.2 ± 1.6 days | Number of dead mice [5, 12]: 1/12 | AG: Percentage of mice in the group [5, 13]: 100% | CFT: Percentage of mice in the group [5, 13]: 100% | CHLP: Percentage of mice in the group [5, 13]: 58% | D (dead): Percentage of mice in the group [5, 13]: 8% | HLH: Percentage of mice in the group [5, 13]: 100% | IRR: Percentage of mice in the group [5, 13]: 100% | M (moribund): Percentage of mice in the group [5, 13]: 0% | PFT: Percentage of mice in the group [5, 13]: 100% | PHLP: Percentage of mice in the group [5, 13]: 75% | Mean day of symptom loss [5, 14]: 44.0 ± 3.6 days | Mean day of symptom onset [5, 14]: 34.3 ± 6.6 days | Mean duration of symptoms [5, 14]: 13.7 ± 4.0 days | No. of diseased mice [5, 14]: 9/11 | Number of dead mice [5, 14]: 3/11 | AG: Percentage of mice in the group [5, 15]: 82% | CFT: Percentage of mice in the group [5, 15]: 82% | CHLP: Percentage of mice in the group [5, 15]: 73% | D (dead): Percentage of mice in the group [5, 15]: 27% | HLH: Percentage of mice in the group [5, 15]: 82% | IRR: Percentage of mice in the group [5, 15]: 82% | M (moribund): Percentage of mice in the group [5, 15]: 0% | PFT: Percentage of mice in the group [5, 15]: 82% | PHLP: Percentage of mice in the group [5, 15]: 73% | NA levels in mouse brain lipids compared to undosed and vehicle [6]: enhancement of the NA levels in brain lipids | concentration at which compositions are liquids at room temperature [7]: ≤ 25% | CHLP: Number of animals showing symptoms/total [8, 16]: 1/10 | FT: Number of animals showing symptoms/total [8, 16]: 6/10** | HLH: Number of animals showing symptoms/total [8, 16]: 4/10*** | Neurological scores [8, 16]: consistently lower compared to values recorded for undosed and vehicle-treated animals | PHLP: Number of animals showing symptoms/total [8, 16]: 3/10 | animals that experienced symptoms of disease [8, 16]: 60% | effect on incidence of disease [8, 16]: significantly reduces the incidents of disease | Mean day of final symptom loss (±SD) [8, 17]: 16.3 ± 1.0 days | Mean day of symptom onset (±SD) [8, 17]: 12.3 ± 0.8 days | Mean duration of symptoms (day ± SD) [8, 17]: 4.0 ± 1.2 days | Number of dead/total [8, 17]: 0/10 | Number diseased/total ([8]; […], oral 1000 mg/kg body weight/day, 5 days prior to inoculation and 22 days PI, n=10): 6/10*
